Assay results published in patent publication US9433214B2, “Active compounds combination containing fluopyram Bacillus and biologically control agent” (BAYER INTELLECTUAL PROPERTY GMBH, priority 2012, dated 2016).

System: Meloidogyne incognita
Assay: Meloidogyne incognita test (MELGIN): gall formation on salad seedlings in sand
Format: in vivo
Conditions: 504 h, eggs and larvae of Meloidogyne incognita, salad seeds in sand, 100% = no galls, read-out: Mortality in % after 21 d
Protocol: Meloidogyne incognita—Test (MELGIN)
Solvent: 125.0 parts by weight of acetone
To produce a suitable preparation of active compound, 1 part by weight of active compound is mixed with the stated amount of solvent, and the concentrate is diluted with water to the desired concentration. The preparation of the bacteria, fungi or yeast products contains 10^9-10^10 spores/g or cells/g. To produce a suitable preparation of a biological suspension the cells or spores are diluted with emulsifier-containing water to the desired concentration.
Vessels are filled with sand, a solution of the active ingredient, a suspension containing eggs and larvae of Meloidogyne incognita and salad seeds. The salad seeds germinate and the seedlings grow. Galls develop in the roots.
After the specified period of time the nematicidal activity is determined on the basis of the percentage of gall formation. When Meloidogyne incognita attacks roots of plants, it deforms the normal root cells and establishes giant cells and consequently the attacked roots form galls. 100% means that no galls were found; 0% means that the number of galls found on the roots of the treated plants was equal to that in untreated control plants.

O=C(NCCc1ncc(C(F)(F)F)cc1Cl)c1ccccc1C(F)(F)F [Fluopyram]
gall reduction efficacy at 0.0005 ppm: 0%
